Each structure is given as a SMILES string. Where “and” joins values, the source holds several entries; their conditions need not be identical. Equal values may be shown once.

In one experiment the target is T1, GATA2 (Homo sapiens, UniProt P23769).
T1 construct: we tried to synthesize their full-length proteins using the cell-free system; made in house; host or cells: wheat cell-free protein synthesis system (WEPRO1240 kit)
T1 sequence (P23769 1-480): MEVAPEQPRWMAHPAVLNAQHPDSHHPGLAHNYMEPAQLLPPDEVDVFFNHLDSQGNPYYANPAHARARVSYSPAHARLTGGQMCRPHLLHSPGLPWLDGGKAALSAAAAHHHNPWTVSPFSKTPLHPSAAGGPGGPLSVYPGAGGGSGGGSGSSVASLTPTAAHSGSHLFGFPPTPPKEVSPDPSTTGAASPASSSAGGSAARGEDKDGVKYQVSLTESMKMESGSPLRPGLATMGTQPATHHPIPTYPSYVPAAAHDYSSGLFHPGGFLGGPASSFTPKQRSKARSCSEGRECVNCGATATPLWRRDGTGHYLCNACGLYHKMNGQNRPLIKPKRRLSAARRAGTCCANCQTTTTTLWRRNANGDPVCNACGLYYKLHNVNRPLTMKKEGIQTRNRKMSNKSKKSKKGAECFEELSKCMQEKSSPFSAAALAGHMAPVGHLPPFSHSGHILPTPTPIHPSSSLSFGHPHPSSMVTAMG
The experiment is described as follows: AlphaScreen DNA-binding assay, GATA2. Conditions: pyrrothiogatain 0 to 200 µM. On the procedure: For the protein-DNA binding assay on a 384-well AlphaPlate (Perkin Elmer), 10 μL of bait protein mixture containing 1 µL FLAG-tagged protein in AlphaScreen Buffer (100 mM Tris-HCl (pH 8.0), 150 mM NaCl, 0.1% Tween 20, and 1 mg/mL BSA) and 5 µL biotinylated oligonucleotide (0–10 µM final concentration) in AlphaScreen Buffer were dispended into the AlphaPlate. Then, the plate was incubated at 26 °C for 1 h. After incubation, 10 μL of the detection mixture containing 0.4 µg/mL Anti-DYKDDDDK antibody (1E6, Wako), 0.1 μL streptavidin-conjugated AlphaScreen donor beads, and 0.1 μL protein A-conjugated AlphaScreen acceptor beads in AlphaScreen Buffer was mixed and incubated at 26 °C for 1 h, and then, the AlphaScreen signal was detected using an EnVision device with the AlphaScreen signal detection program (PerkinElmer).
For the AlphaScreen-based chemical library screening, we used a diverse set of 9,600 synthesized chemicals established by the Drug Discovery Initiative (The University of Tokyo, Tokyo, Japan). All chemical compounds (10 mM) were dissolved in DMSO, and were pre-dispensed into a 384-well Alphaplate (250 nL/well). […] The AlphaScreen signal was detected using an EnVision device with the AlphaScreen signal detection program (PerkinElmer). […]

The next experiment concerns cytokine production. The experiment is described as follows: ELISA of cytokine production, total CD4+ T cells under IL-2 conditions. The class given is cell-based, mouse. To be noted: 30 µM, five days. On the procedure: C57BL/6 mice were purchased from Clea (Clea Japan, Inc., Tokyo, Japan). Total CD4^+ T cells isolated from mouse spleen were prepared using a FITC anti-mouse CD4 antibody (Cat#100510, RM4–5, BioLegend) and anti-FITC-microbeads (Cat#130-097-050, Miltenyi Biotec). Naive CD4^+ T cells (CD44^low, CD62L^high) were prepared using a MojoSort Mouse CD4 T cell Isolation Kit (Cat#480033), BioLegend). Biotinylated anti-CD44 (Cat#103004, IM7) and anti-CD25 antibodies (Cat#102004, PC61) were purchased from BioLegend. […]
The CD4^+ T cells cultured for five days were stimulated using an immobilized anti-TCR-β mAb (3 µg/mL, H57–597, BioLegend) for 16 h, and the culture supernatants were recovered. The amount of cytokines in the recovered supernatants was determined with ELISA using the following antibodies and reagents: anti-IL-4 mAb (Cat#554387, BD Biosciences), biotin-anti-IL-4 mAb (Cat#554390, BD Biosciences), anti-IL-5 mAb (Cat#554393, BD Biosciences), biotin-anti-IL-5 mAb (Cat#554397, BD Biosciences), anti-IFN-γ mAb (Cat#551216, BD Biosciences), biotin-anti-IFN-γ mAb (Cat#554410, BD Biosciences), anti-IL-2 mAb (Cat#554424, BD Biosciences), biotin-anti-IL-2 mAb (Cat#554426, BD Biosciences), streptavidin horseradish peroxidase (Cat#434323, Invitrogen), and TMB peroxidase EIA substrate kit (Cat#1721066, BioRad). […]

Take `Cc1ccc(C)n1-c1ccsc1C(=O)O` [Pyrrothiogatain, 3-(2,5-dimethyl-1H-pyrrol-1-yl)thiophene-2-carboxylic acid]: at GATA2, the IC50 is ~50 µM and 45 µM. In addition, in the experiment on cytokine production, the “Production of IFN-γ (ELISA)” value was “Increased”; the “Production of IL-4, IL-5, IL-10, and IL-13 (ELISA)” value is “decreased”.

Source of the values: PMC6874683, “Pyrrothiogatain acts as an inhibitor of GATA family proteins and inhibits Th2 cell differentiation in vitro” (Scientific Reports, 2019).
